Experiments:
[1] = tested on: barnyardgrass (Echinochloa crus-galli L.): ECHCG; test: Test Example 1 pre-emergence herbicidal activity, ECHCG; type: in vivo; details: Rate 63 g a.i./ha, visually observed 20th to 23rd day after application
Method in brief: (§1)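 Herbicidal effect in pre-emergence treatment: formulated compound sprayed at 500 L/ha water one day after sowing in upland field soil pots, with visual 0–100% growth-control scores recorded 20–23 days after application.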

[2] = tested on: crabgrass (Digitaria sanguinalis L.): DIGSA; test: Test Example 1 pre-emergence herbicidal activity, DIGSA; type: in vivo; details: Rate 63 g a.i./ha, visually observed 20th to 23rd day after application
Method in brief: as §1

[3] = tested on: green foxtail (Setaria viridis L.): SETVI; test: Test Example 1 pre-emergence herbicidal activity, SETVI; type: in vivo; details: Rate 63 g a.i./ha, visually observed 20th to 23rd day after application
Method in brief: as §1

[4] = tested on: redroot pigweed (Amaranthus retroflexus L.): AMARE; test: Test Example 1 pre-emergence herbicidal activity, AMARE; type: in vivo; details: Rate 63 g a.i./ha, visually observed 20th to 23rd day after application
Method in brief: as §1

[5] = tested on: prickly sida (Sida spinosa L.): SEDSP; test: Test Example 1 pre-emergence herbicidal activity, SIDSP; type: in vivo; details: Rate 63 g a.i./ha, visually observed 20th to 23rd day after application
Method in brief: as §1

[6] = tested on: velvetleaf (Abutilon theophrasti): ABUTH; test: Test Example 1 pre-emergence herbicidal activity, ABUTH; type: in vivo; details: Rate 63 g a.i./ha, visually observed 20th to 23rd day after application
Method in brief: as §1

[7] = tested on: rice (Oryza sativa L.): ORYSA; test: Test Example 1 pre-emergence herbicidal activity, ORYSA; type: in vivo; details: Rate 63 g a.i./ha, visually observed 20th to 23rd day after application
Method in brief: as §1

[8] = tested on: wheat (Triticum aestivum L.): TRZAX; test: Test Example 1 pre-emergence herbicidal activity, TRZAX; type: in vivo; details: Rate 63 g a.i./ha, visually observed 20th to 23rd day after application
Method in brief: as §1

[9] = tested on: corn (Zea mays L.): ZEAMX; test: Test Example 1 pre-emergence herbicidal activity, ZEAMX; type: in vivo; details: Rate 63 g a.i./ha, visually observed 20th to 23rd day after application
Method in brief: as §1

[10] = tested on: soybean (Glycine max Merr.): GLXMA; test: Test Example 1 pre-emergence herbicidal activity, GLXMA; type: in vivo; details: Rate 63 g a.i./ha, visually observed 20th to 23rd day after application
Method in brief: as §1

[11] = tested on: barnyardgrass (Echinochloa crus-galli L.), ECHCG; test: Test Example 2 post-emergence (foliage treatment) herbicidal activity, ECHCG; type: in vivo; details: 63 g a.i./ha
Method in brief: (§2)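 A small sprayer delivered the diluted WP or EC formulation (500 L/ha water, 0.1% v/v spreader) over emerged seedlings in upland soil pots. Damage relative to untreated plants was graded visually from 0 to 100% three weeks or so later (days 20-23).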

[12] = tested on: crabgrass (Digitaria sanguinalis L.), DIGSA; test: Test Example 2 post-emergence (foliage treatment) herbicidal activity, DIGSA; type: in vivo; details: 63 g a.i./ha
Method in brief: as §2

[13] = tested on: green foxtail (Setaria viridis L.), SETVI; test: Test Example 2 post-emergence (foliage treatment) herbicidal activity, SETVI; type: in vivo; details: 63 g a.i./ha
Method in brief: (§3)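 Foliar spray of formulated compound (500 L/ha dilution water, 0.1% v/v spreader) onto young potted plants at defined leaf stages. Scored 0-100% by visual inspection 20-23 d post-spray.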

[14] = tested on: redroot pigweed (Amaranthus retroflexus L.), AMARE; test: Test Example 2 post-emergence (foliage treatment) herbicidal activity, AMARE; type: in vivo; details: 63 g a.i./ha
Method in brief: as §2

[15] = tested on: prickly sida (Sida spinosa L.), SIDSP; test: Test Example 2 post-emergence (foliage treatment) herbicidal activity, SIDSP; type: in vivo; details: 63 g a.i./ha
Method in brief: as §3

[16] = tested on: velvetleaf (Abutilon theophrasti), ABUTH; test: Test Example 2 post-emergence (foliage treatment) herbicidal activity, ABUTH; type: in vivo; details: 63 g a.i./ha
Method in brief: as §3

[17] = tested on: rice (Oryza sativa L.), ORYSA; test: Test Example 2 post-emergence (foliage treatment) herbicidal activity, ORYSA; type: in vivo; details: 63 g a.i./ha
Method in brief: as §2

[18] = tested on: wheat (Triticum aestivum L.), TRZAX; test: Test Example 2 post-emergence (foliage treatment) herbicidal activity, TRZAX; type: in vivo; details: 63 g a.i./ha
Method in brief: as §3

[19] = tested on: corn (Zea mays L.), ZEAMX; test: Test Example 2 post-emergence (foliage treatment) herbicidal activity, ZEAMX; type: in vivo; details: 63 g a.i./ha
Method in brief: as §3

[20] = tested on: soybean (Glycine max Merr.), GLXMA; test: Test Example 2 post-emergence (foliage treatment) herbicidal activity, GLXMA; type: in vivo; details: 63 g a.i./ha
Method in brief: as §3

[21] = tested on: barnyardgrass (Echinochiloa oryzicola: ECHOR); test: Test Example 3 water application herbicidal activity (paddy), ECHOR; type: in vivo; details: 63 g a.i./ha, water application under submerged condition at 0.5 leaf stage, visually observed 14th day after application; 0 = untreated control, 100 = complete kill
Method in brief: (§4)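 Flooded paddy-soil pots in greenhouse; ECHOR and SCPJO sown, SAGPY tubers planted a day later, compound applied into 3–4 cm water at weeds' 0.5-leaf stage. Rice transplanted at 2-leaf stage, treated day 4 after transplanting. Visual growth control 0–100% at 14 days (weeds) and 21 days (rice) after application.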

[22] = tested on: japanese bulrush (Scirpus juncoides: SCPJO); test: Test Example 3 water application herbicidal activity (paddy), SCPJO; type: in vivo; details: 63 g a.i./ha, water application under submerged condition at 0.5 leaf stage, visually observed 14th day after application; 0 = untreated control, 100 = complete kill
Method in brief: as §4

[23] = tested on: japanese ribbon wapato (Sagittaria pygmaea: SA GPY); test: Test Example 3 water application herbicidal activity (paddy), SAGPY; type: in vivo; details: 63 g a.i./ha, water application under submerged condition, tubers planted, visually observed 14th day after application; 0 = untreated control, 100 = complete kill
Method in brief: as §4

[24] = tested on: rice (Oryza sativa L.: ORYSA); test: Test Example 3 water application herbicidal activity (paddy), transplanted rice ORYSA; type: in vivo; details: 63 g a.i./ha, water application 4th day after transplantation of 2 leaf stage rice, visually observed 21st day after application; 0 = untreated control, 100 = complete kill
Method in brief: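 Compound, as diluted wettable powder or emulsifiable concentrate, was pipetted into flood water at a set active-ingredient dose. Weeds were treated at 0.5-leaf stage after sowing or tuber planting; 2-leaf rice 4 days post-transplant. Control scored visually, 0 untreated to 100 complete kill, weeds day 14, rice day 21.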

In the case of COc1c(Cl)cc(F)c(-c2nn(C)c(OC(F)F)c2Cl)c1NC=O [Compound 1-4, [3-chloro-6-[4-chloro-5-(difluoromethoxy)-1-methyl-1H-pyrazol-3-yl]-5-fluoro-2-methoxyphenyl]-formamide], the “Pre-emergence Herbicidal Activity ECHCG (growth controlling degree)” value [1] is reported as 95%, the “Pre-emergence Herbicidal Activity DIGSP (growth controlling degree)” value [2] is reported as 100% and the “Pre-emergence Herbicidal Activity SETVI (growth controlling degree)” value [3] is reported as 100%. For the same molecule, the “Pre-emergence Herbicidal Activity AMARE (growth controlling degree)” value [4] was 100%, the “Pre-emergence Herbicidal Activity SIDSP (growth controlling degree)” value [5] was 100% and the “Pre-emergence Herbicidal Activity ABUTH (growth controlling degree)” value [6] was 100%. For the same molecule, the “Pre-emergence Herbicidal Activity ORYSA (growth controlling degree)” value [7] was 80%, the “Pre-emergence Herbicidal Activity TRZAX (growth controlling degree)” value [8] was 40% and the “Pre-emergence Herbicidal Activity ZEAMX (growth controlling degree)” value [9] was 40%. For the same molecule, the “Pre-emergence Herbicidal Activity GLXMA (growth controlling degree)” value [10] was 40%, the “growth controlling degree, ECHCO” value [11] was 100% and the “growth controlling degree, DIGSP” value [12] was 100%. The “growth controlling degree, SETVI” value [13] was 100%, the “growth controlling degree, AMARE” value [14] was 100% and the “growth controlling degree, SIDSP” value [15] was 100%. The “growth controlling degree, ABUTH” value [16] was 100%, the “growth controlling degree, ORYSA” value [17] was 50% and the “growth controlling degree, TRZAX” value [18] was 50%. For the same molecule, the “growth controlling degree, ZEAMX” value [19] was 80%, the “growth controlling degree, GLXMA” value [20] was 80% and the “growth controlling degrees (%) ECHOR” value [21] was 100%. For the same molecule, the “growth controlling degrees (%) SCPJO” value [22] was 100%, the “growth controlling degrees (%) SAGPY” value [23] was 98% and the “growth controlling degrees (%) ORYSA” value [24] was 70%. For the same molecule, the melting point was 100 to 103 °C.

Source: patent US20050245399A1, “Pyrazole derivatives as herbicidal compositions containing them” (ISHIHARA SANGYO KAISHA, LTD., priority 2004, published 2005)
